Results on 1 molecule are retold here after patent publication US20160271155A1, “Vitamin Formulations” (NESTEC S.A., priority 2013, published 2016).

The term Cmax denotes the highest concentration seen after dosing. A word on the Tmax: it is the time at which the peak concentration occurs.

The test system of data set [1] is Caco-2 cell monolayer. The data set is described as follows: Absorption assessment in Caco-2 cell monolayer. Type of data set: in vitro ADME. The source says:
The Caco-2 cell monolayer model is the standard for predicting human oral absorption. The test samples included: B9:stevioside at 1:0; 1:4; 1:10 and 1:20.
Table 4 tabulates the permeability of methylfolate calcium (B9) in Caco-2 monolayer cell culture.

Data set [2] is described as follows: Absorption assessment in a rat model (oral pharmacokinetics). The following applies: rats, oral gavage. The format is in vivo, Sprague Dawley rat. The source says:
Each group (formulation) had 8 rats (n=8).
Vertical bars represent one standard error of the means (n=8).
The table contains various pharmacokinetic parameters in rats orally administered with various methylfolate Ca (B9) formulations. Shown as Average±SD (% over the 1:0 control formulation).

A short description of data set [3]: Particle size of B9:stevioside solutions. Type of data set: physicochemical. The conditions noted are these: Homogenization for 5 min and heat at 80° for 5 min; no unit in table (b98 speaks of nm). The source says: In certain instances, the stevioside: B9 complex comprises a nanoparticle, or a nanomicelle, with a characteristic size distribution of approximately 2 nm to about 4 nanometers. This size, along with their physical and chemical properties, is believed to be important regarding their bioavailability enhancement properties. Nanoparticle size distribution can be measured using Dynamic Light Scattering (DLS).

A short description of data set [4]: Concentration of B9 in water and solution appearance at B9:stevioside ratios (HPLC). The following applies: for Solution Appearance: 15 mg/mL B9 in water.
Procedure: Vitamin B9 (5-methyl folate, MW 459.46) was formulated using stevioside to form a complex.
All water solutions were prepared to contain 15 mg/mL B9 and filtered before HPLC analysis.
Where [5] appears, read: dose equivalent to 19 mg/70 kg person, n=8, Average±SD.

With `CN1c2c(nc(N)[nH]c2=O)NCC1CNc1ccc(C(=O)N[C@@H](CCC(=O)[O-])C(=O)O)cc1.CN1c2c(nc(N)[nH]c2=O)NCC1CNc1ccc(C(=O)N[C@@H](CCC(=O)[O-])C(=O)O)cc1.[Ca+2]` (stereo partly drawn) [B9:ST 1:0], in data set [1] (Caco-2 monolayer), the “permeability in Caco-2 cell monolayer assay” value is given as “permeable”. In data set [1] (Caco-2 monolayer, 76 μg/mL B9, 2 hr), the “Permeation enhancement (over 1:0)” value is 1.00. The “Papp (A-B)” value in data set [1] (Caco-2 monolayer, 76 μg/mL B9, assay duration 2 hr) is on record as 5.89 ± 0.245 10^−6 · cm· s^−1. The predicted oral absorption in data set [1] (predicted from the Caco-2 value) is listed as 70-80%. In addition, the “Caco-2 value (rounded)” value in data set [1] (text summary of Table 4, unit not given) was 6. Besides, in data set [2] (19 mg/70 kg person equivalent), the “AUC0-∞, % over the 1:0 control formulation” value is “(100) %”; the “AUC^0-12, % over the 1:0 control formulation” value is listed as “(100) %”; the “CL, % over the 1:0 control formulation” value is on record as “(100) %”; the “Cmax, % over the 1:0 control formulation” value is “(100) %”. Also, in data set [2] (19 mg/70 kg person equivalent), the “MRT0-∞, % over the 1:0 control formulation” value is listed as “(100) %”; the “T1/2, % over the 1:0 control formulation” value is “(100) %”; the “Tmax, % over the 1:0 control formulation” value is reported as “(100) %”; the “Vss, % over the 1:0 control formulation” value is recorded as “(100) %”. For the same molecule, in data set [2] (setting [5]), the CL came to 0.69 ± 0.06 mL/h kg^−1, the Cmax stood at 630.00 ± 49.55 ng/mL, the “MRT0-∞” value is reported as 12.41 ± 2.40 h and the T1/2 turned out to be 8.60 ± 1.92 h. Also, in data set [2] (setting [5]), the time of peak concentration (Tmax) was determined as 1.59 ± 0.36 h and the Vss was determined as 7.70 ± 0.95 mL/kg. In addition, in data set [3], the “Particle Size MN” value is 1,865 and the “Particle Size MV” value is 1,917. Further, the “Solution Appearance” value in data set [4] (Homogenization for 5 min and heat at 80° for 5 min) was “Suspension”. Further, in data set [4] (Homogenization for 5 min and heat at 80° for 5 min, prepared to contain 15 mg/mL B9, filtered before HPLC), the “Concentration (mg/mL in water)” value is listed as 9.2 mg/mL. For the same molecule, the “Solution Appearance” value in data set [4] (No homogenization or heat) is given as “Suspension”.
